How the values were obtained:
[1] = target: T1, RORγ-LBD (Homo sapiens, UniProt P51449); assay: RORγ-Ligand Binding Domain (LBD) TR-FRET Assay; assay type: biochemical;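 as to TR-FRET Assay Max Response: 665/615 nm ratio relative to signal without ursolic acid or compound set at 100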
T1 construct: made in house; host or cells: SF9 cells (baculovirus)
T1 sequence (P51449 269-508 limits assumed): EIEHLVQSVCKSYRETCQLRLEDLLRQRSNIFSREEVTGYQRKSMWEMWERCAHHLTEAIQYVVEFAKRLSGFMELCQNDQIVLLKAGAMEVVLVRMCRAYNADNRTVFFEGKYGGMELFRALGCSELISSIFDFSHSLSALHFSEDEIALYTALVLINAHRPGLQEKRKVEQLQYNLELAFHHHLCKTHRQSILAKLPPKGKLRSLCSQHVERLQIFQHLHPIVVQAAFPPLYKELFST
In short: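 Compounds, diluted in DMSO and then in assay buffer (1% DMSO final), were combined with His-tagged RORγ-LBD lysate at roughly 3 nM final and a 200 nM biotinylated SRC1 LXXLL peptide. Ursolic acid was included at 2 μM final. Coactivator recruitment was detected by TR-FRET.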

[2] = target: T2, Gal4-RORγ-LBD (Homo sapiens, UniProt P51449); assay: Gal4-RORγ Luciferase Reporter Assay in HEK-293T Cells; assay type: cell-based; conditions: HEK-293 cells
T2 construct: expressed in transfected cells; host or cells: HEK-293 cells (pcDNA3.1neo plasmid)
T2 sequence (P51449 269-508 limits assumed): T1 sequence (P51449 269-508 limits assumed)
In short: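 HEK-293 cells were transiently co-transfected with Gal4-RORγ-LBD and pGL4.31 Gal4-luciferase, with ursolic acid added at 2 μM final. Compounds were incubated overnight at 37° C. in 0.2% DMSO and luminescence read with One-Glo. Max Response is the upper plateau of a 4-parameter logistic fit, with signal lacking ursolic acid or compound set to 100.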

[3] = luciferase reporter, with 2 μM ursolic acid

Row | EC50 [1] [nM] | EC50 [2, 3] [nM] | EC50 ([2]; 2 μM ursolic acid) [nM] | SMILES | TR-FRET Assay Max Response [1] | Gal4-RORγ Assay Max Response [2, 3] | Gal4-RORγ Assay Max Response ([2]; 2 μM ursolic acid)
1 | < 500 | < 500 |  | CC(C)c1cccc(S(=O)(=O)N2C[C@H](CCNC(=O)C(C)(C)O)Oc3ccc(-c4cccc(N(C)C)n4)cc32)c1 [Compound 30G, (S)-N-(2-(6-(6-(dimethylamino)-pyridin-2-yl)-4-((3-isopropyl-phenyl)sulfonyl)-3.,4-dihydro-2H-benzo[b][1,4]oxazin-2-yl)ethyl)-2-hydroxy-2-methylpropanamide] | **** (The symbol “****” indicates a value greater than 200) | * (The symbol “*” indicates a value in the range of 25 to 90) | 
2 | < 500 | < 500 |  | CN(C)c1cccc(-c2ccc3c(c2)N(S(=O)(=O)c2cccc(C(F)(F)F)c2)C[C@H](CNC(=O)C(C)(C)O)O3)n1 [Compound 30H, (S)-N-((6-(6-(dimethylamino)-pyridin-2-yl)-4-((3-(trifluoromethyl)phenyl)sulfonyl)-3,4-dihydro-2H-benzo[b][1,4]oxazin-2-yl)methyl)-2-hydroxy-2-methylpropanamide] | **** (The symbol “****” indicates a value greater than 200) | * (The symbol “*” indicates a value in the range of 25 to 90) | 
3 | < 500 | < 500 |  | CC(C)(O)C(=O)NC[C@H]1CN(S(=O)(=O)c2cccc(C(F)(F)F)c2)c2cc(-c3cccc(C(F)(F)F)n3)ccc2O1 [Compound 30I, (S)-2-hydroxy-2-methyl-N-((4-((3-(trifluoromethyl)phenyl)-sulfonyl)-6-(6-(trifluoromethyl)-pyridin-2-yl)-3,4-dihydro-2H-benzo[b][1,4]oxazin-2-yl)methyl)propanamide] | **** (The symbol “****” indicates a value greater than 200) | * (The symbol “*” indicates a value in the range of 25 to 90) | 
4 | < 500 | < 500 |  | CC(C)c1cccc(S(=O)(=O)N2C[C@H](CNC(=O)C(C)(C)O)Oc3ccc(-c4cccc(N(C)C)n4)cc32)c1 [Compound 30J, (S)-N-((6-(6-(dimethylamino)-pyridin-2-yl)-4-((3-isopropylphenyl)sulfonyl)-3,4-dihydro-2H-benzo[b][1,4]oxazin-2-yl)methyl)-2-hydroxy-2-methylpropanamide] | **** (The symbol “****” indicates a value greater than 200) | * (The symbol “*” indicates a value in the range of 25 to 90) | 
5 | < 500 | < 500 |  | CC(C)c1cccc(S(=O)(=O)N2C[C@H](CNC(=O)C(C)(C)O)Oc3ccc(-c4cc(F)ccc4F)cc32)c1 [Compound 30K, (S)-N-((6-(2,5-difluorophenyl)-4-((3-isopropylphenyl)sulfonyl)-3,4-dihydro-2H-benzo[b][1,4]-oxazin-2-yl)methyl)-2-hydroxy-2-methylpropanamide] | **** (The symbol “****” indicates a value greater than 200) | * (The symbol “*” indicates a value in the range of 25 to 90) | 

Continued, compound first:

Row | SMILES | EC50 [1] [nM] | EC50 [2, 3] [nM] | EC50 ([2]; 2 μM ursolic acid) [nM] | TR-FRET Assay Max Response [1] | Gal4-RORγ Assay Max Response [2, 3] | Gal4-RORγ Assay Max Response ([2]; 2 μM ursolic acid)
6 | CC(C)c1cccc(S(=O)(=O)N2C[C@H](CCNC(=O)C(C)(C)O)Oc3ccc(-c4cc(F)ccc4F)cc32)c1 [Compound 30D, (S)-N-(2-(6-(2,5-difluoro-phenyl)-4-((3-isopropylphenyl)-sulfonyl)-3,4-dihydro-2H-benzo[b][1,4]oxazin-2-yl)ethyl)-2-hydroxy-2-methylpropanamide] | < 500 | < 500 |  | **** (The symbol “****” indicates a value greater than 200) | * (The symbol “*” indicates a value in the range of 25 to 90) | 
7 | NS(=O)(=O)CCC(=O)NC[C@H]1CN(S(=O)(=O)c2cccc(C(F)(F)F)c2)c2cc(-c3cc(F)cc(OC(F)F)c3)ccc2O1 [Compound 30DA, (S)-N-((6-(3-(difluoromethoxy)-5-fluorophenyl)-4-((3-(trifluoro-methyl)phenyl)sulfonyl)-3,4-dihydro-2H-benzo[b][1,4]-oxazin-2-yl)methyl)-3-sulfamoylpropanamide] | < 500 |  | 500 to 5000 | *** (The symbol “***” indicates a value in the range of greater than 150 to 200) |  | * (The symbol “*” indicates a value in the range of 25 to 90)
8 | CC(=O)NC(C)(C)C[C@@H]1CN(S(=O)(=O)c2cccc(C(F)(F)F)c2)c2cc(-c3cc(F)ccc3F)ccc2O1 [Compound 30DC, (R)-N-(1-(6-(2,5-difluoro-phenyl)-4-((3-(trifluoromethyl)-phenyl)sulfonyl)-3,4-dihydro-2H-benzo[b][1,4]oxazin-2-yl)-2-methylpropan-2-yl)acetamide] | < 500 |  | 500 to 5000 | *** (The symbol “***” indicates a value in the range of greater than 150 to 200) |  | * (The symbol “*” indicates a value in the range of 25 to 90)
9 | CC(C)(C[C@H]1CN(S(=O)(=O)c2cccc(C(F)(F)F)c2)c2cc(-c3cc(F)ccc3F)ccc2O1)NS(C)(=O)=O [Compound 30DE, (S)-N-(1-(6-(2,5-difluoro-phenyl)-4-((3-(trifluoromethyl)-phenyl)sulfonyl)-3,4-dihydro-2H-benzo[b][1,4]oxazin-2-yl)-2-methylpropan-2-yl)methane-sulfonamide] | < 500 |  | < 500 | *** (The symbol “***” indicates a value in the range of greater than 150 to 200) |  | * (The symbol “*” indicates a value in the range of 25 to 90)
10 | CC(C)(F)C(=O)NC[C@H]1CN(S(=O)(=O)c2cccc(C(F)(F)F)c2)c2cc(-c3cc(F)cc(OC(F)F)c3)ccc2O1 [Compound 30DG, (S)-N-((6-(3-(difluoromethoxy)-5-fluorophenyl)-4-((3-(trifluoro-methyl)phenyl)sulfonyl)-3,4-dihydro-2H-benzo[b][1,4]-oxazin-2-yl)methyl)-2-fluoro-2-methylpropanamide] | < 500 |  | 500 to 5000 | *** (The symbol “***” indicates a value in the range of greater than 150 to 200) |  | * (The symbol “*” indicates a value in the range of 25 to 90)
11 | CC(C)(CO)C(=O)NC[C@H]1CN(S(=O)(=O)c2cccc(C(F)(F)F)c2)c2cc(-c3cc(F)cc(OC(F)F)c3)ccc2O1 [Compound 30DH, (S)-N-((6-(3-(difluoromethoxy)-5-fluorophenyl)-4-((3-(trifluoro-methyl)phenyl)sulfonyl)-3,4-dihydro-2H-benzo[b][1,4]-oxazin-2-yl)methyl)-3-hydroxy-2,2-dimethylpropanamide] | < 500 |  | < 500 | *** (The symbol “***” indicates a value in the range of greater than 150 to 200) |  | * (The symbol “*” indicates a value in the range of 25 to 90)
12 | C=CCC(=O)NC[C@H]1CN(S(=O)(=O)c2cccc(C(F)(F)F)c2)c2cc(-c3cc(F)cc(OC(F)F)c3)ccc2O1 [Compound 30DI, (S)-N-((6-(3-(difluoromethoxy)-5-fluorophenyl)-4-((3-(trifluoro-methyl)phenyl)sulfonyl)-3,4-dihydro-2H-benzo[b][1,4]-oxazin-2-yl)methyl)but-3-enamide] | < 500 |  | < 500 | *** (The symbol “***” indicates a value in the range of greater than 150 to 200) |  | * (The symbol “*” indicates a value in the range of 25 to 90)
13 | O=C(NC[C@H]1CN(S(=O)(=O)c2cccc(C(F)(F)F)c2)c2cc(-c3cc(F)cc(OC(F)F)c3)ccc2O1)C1(F)CC1 [Compound 30DJ, (S)-N-((6-(3-(difluoromethoxy)-5-fluorophenyl)-4-((3-(trifluoro-methyl)phenyl)sulfonyl)-3,4-dihydro-2H-benzo[b][1,4]-oxazin-2-yl)methyl)-1-fluorocyclopropane-1-carboxamide] | < 500 |  | 500 to 5000 | *** (The symbol “***” indicates a value in the range of greater than 150 to 200) |  | * (The symbol “*” indicates a value in the range of 25 to 90)
14 | COc1cccc(-c2ccc3c(c2)N(S(=O)(=O)c2cccc(C(F)(F)F)c2)C[C@H](CCNC(=O)C(C)(C)O)O3)c1 [Compound 30E, (S)-2-hydroxy-N-(2-(6-(3-methoxyphenyl)-4-((3-(trifluoromethyl)phenyl)sulfonyl)-3,4-dihydro-2H-benzo[6][1,4]oxazin-2-yl)ethyl)-2-methylpropanamide] | < 500 | < 500 |  | **** (The symbol “****” indicates a value greater than 200) | ** (The symbol “**” indicates a value in the range of greater than 90 to 150) | 
15 | COc1cc(F)cc(-c2ccc3c(c2)N(S(=O)(=O)c2cccc(C(F)(F)F)c2)C[C@H](CCNC(=O)C(C)(C)O)O3)c1F [Compound 30F, (S)-N-(2-(6-(2,5-difluoro-3-methoxyphenyl)-4-((3-(trifluoromethyl)phenyl)sulfonyl)-3,4-dihydro-2H-benzo[b][1,4]oxazin-2-yl)ethyl)-2-hydroxy-2-methylpropanamide] | < 500 | < 500 |  | **** (The symbol “****” indicates a value greater than 200) | * (The symbol “*” indicates a value in the range of 25 to 90) | 
